This is an account of results in the NIST ThermoML archive (doi:10.1016/j.fluid.2014.10.031).

Numbers after ± are expanded uncertainties.

A short description of data set [1]: Molar enthalpy of transition or fusion. Particulars: Crystal; DSC.
The conditions of data set [2]: Crystal; DTA.

Regarding `COc1cc(O)c2c(c1)oc(=O)c1c3cc(O)c(O)cc3oc21` [wedelolactone], the “Molar enthalpy of transition or fusion” value in data set [1] is 10.9 ± 0.478 kcal/mol. Further, the Normal melting temperature in data set [2] stood at 316.37 ± 24 °C.
